Laboratory results from US11358962B2, “2-hetaryl imidazol[1,2-a]pyridine derivatives” (Hoffmann-La Roche Inc., priority 2013, dated 2022).

What follows are compounds tested on native tau aggregates (assay: TAU radioligand in vitro displacement assay ([3H]T808, autoradiography on human AD brain sections)). Settings: compound 10 nM, radioligand [3H]T808 10 nM.
Type: binding
Source text: TAU Radioligand-In-Vitro Displacement Assay
This in vitro binding assay assesses the affinity of compounds for native tau aggregates.
AD human brains are purchased from Banner Sun Health Research Institute (Sun City, Ariz., USA). Pathological diagnosis of AD is made according to standard NIA-Reagan Institute criteria based on neuropathological data. The radioligand [^3H]T808 was synthesized in-house ([^3H]-2-[4-(2-Fluoro-ethyl)-piperidin-1-yl]-benzo[4,5]imidazo[1,2-a]pyrimidine, radiochemical purity 99.0%). As a reference cold T808 is used (2-[4-(2-Fluoro-ethyl)-piperidin-1-yl]-benzo[4,5]imidazo[1,2-a]pyrimidine). For the autoradiography FujiFilm Imaging Plates (BAS-IP TR 2025) are exposed to the sections and read with a FujiFilm IP reader (BAS-5000).
Ten μm thick human AD brain sections are generated with a cryostat (Leica CM3050) at −17° C. chamber temperature and −15° C. object temperature. Sections are transferred to Histobond+ microscope slides (Marienfeld Laboratory Glasware). After drying for 3 hours at room temperature the sections are stored at −20° C. The sections are incubated with the radioligand (10 nM) and the respective cold compound (at various concentrations) in 50 mM Tris buffer, pH 7.4 at room temperature for 30 min. After washing 3× 10 min at 4° C. in 50 mM Tris buffer, pH 7.4 and 3 quick dips in H2O dist. at 4° C. the sections are dried at 4° C. for 3 h. The sections are placed in a FujiFilm Cassette (BAS 2025), exposed with an Imaging Plate for five days and afterwards scanned with a resolution of […].
The signal intensity (Dens−PSL/mm2) in the region of interest (ROI) of the autoradiogram is quantified with the software MCID analysis (version 7.0, Imaging Research Inc.). The specific binding (SB) of [^3H]T808 binding in absence or in presence of a compound is calculated by subtracting the non-specific binding signal in the white matter, thus yielding SB[3H]T808 only and SBcompound. The % displacement by the various compounds is calculated as following: % displacement=100−(SBcompound/SB[3H]T808 only)*100. Validation Data
In each experiment cold T808 is used as a positive internal control. Co-incubation of equimolar amounts of hot and cold T808 is expected to reduce specific binding by approximately 50%.

Going from “2-Benzo[1,3]dioxol-5-yl-7-[4-(2-fluoro-ethyl)-piperidin-1-yl]-imidazo[1,2-a]pyridine [Example 21]” to `COc1ccc(-c2cn3ccc(N4CC[C@H](F)C4)cc3n2)cc1` [6 (S), (S)-7-(3-Fluoropyrrolidin-1-yl)-2-(4-methoxyphenyl)imidazo[1,2-a]pyridine], the “% displacement of [3H]T808 (10 nM) at 10 nM” value (shortened to “% displacement … at 10 nM”) rises from 7% to 8%.

Compared with `COc1ccc(-c2cn3ccc(N4CC[C@@H](F)C4)cc3n2)cc1` [7 (R), (R)-7-(3-Fluoropyrrolidin-1-yl)-2-(4-methoxyphenyl)imidazo[1,2-a]pyridine], `FCCNc1ccn2cc(-c3ccccc3)nc2c1` [Example 1, N-(2-Fluoroethyl)-2-phenylimidazo[1,2-a]pyridin-7-amine 2,2,2-trifluoroacetate] is higher in “% displacement … at 10 nM” value: 11% for the first, 40% for the second.

First: CN(CCF)c1ccn2cc(-c3ccccc3)nc2c1 [Example 2, N-(2-Fluoroethyl)-N-methyl-2-phenylimidazo[1,2-a]pyridin-7-amine]
Second: CN(C)c1ccn2cc(-c3ccccc3)nc2c1 [Example 3, N,N-Dimethyl-2-phenylimidazo[1,2-a]pyridin-7-amine]
The “% displacement … at 10 nM” value of the first is lower: 50% for the first, 59% for the second.

Compared with `CNc1ccn2cc(-c3ccccc3)nc2c1` [Example 4, N-Methyl-2-phenylimidazo[1,2-a]pyridin-7-amine], `FC1CCN(c2ccn3cc(-c4ccccc4)nc3c2)CC1` [Example 5, 7-(4-Fluoropiperidin-1-yl)-2-phenylimidazo[1,2-a]pyridine] is lower in “% displacement … at 10 nM” value: 61% for the first, 21% for the second.

First: COc1cccc(-c2cn3ccc(N4CCCCC4)cc3n2)c1 [Example 8, 2-(3-Methoxy-phenyl)-7-piperidin-1-yl-imidazo[1,2-a]pyridine]
Second: COc1cccc(-c2cn3ccc(N4CCCC4)cc3n2)c1 [Example 9, 2-(3-Methoxy-phenyl)-7-pyrrolidin-1-yl-imidazo[1,2-a]pyridine]
The “% displacement … at 10 nM” value of the first is lower: 25% for the first, 33% for the second.

`COc1cccc(-c2cn3ccc(N4CCOCC4)cc3n2)c1` [Example 10, 2-(3-Methoxy-phenyl)-7-morpholin-4-yl-imidazo[1,2-a]pyridine] and `COc1ccc(-c2cn3ccc(N4CCCC4)cc3n2)cc1` [Example 11, 2-(4-Methoxy-phenyl)-7-pyrrolidin-1-yl-imidazo[1,2-a]pyridine] are the same in “% displacement … at 10 nM” value: 27% for the first, 27% for the second.

Going from `COc1ccc(-c2cn3ccc(N4CCCCC4)cc3n2)cc1` [Example 12, 2-(4-Methoxy-phenyl)-7-piperidin-1-yl-imidazo[1,2-a]pyridine] to `COc1ccc(-c2cn3ccc(N4CCOCC4)cc3n2)cc1` [Example 13, 2-(4-Methoxy-phenyl)-7-morpholin-4-yl-imidazo[1,2-a]pyridine], the “% displacement … at 10 nM” value rises from 30% to 40%.

First: COc1ccc(-c2cn3ccc(N4CCC(F)CC4)cc3n2)cc1 [Example 14, 7-(4-Fluoro-piperidin-1-yl)-2-(4-methoxy-phenyl)-imidazo[1,2-a]pyridine]
Second: COc1ccc(-c2cn3ccc(N4CCN(CCF)CC4)cc3n2)cc1 [Example 15, 7-[4-(2-Fluoro-ethyl)-piperazin-1-yl]-2-(4-methoxy-phenyl)-imidazo[1,2-a]pyridine]
The “% displacement … at 10 nM” value of the first is lower: 26% for the first, 33% for the second.

First: CN(C)c1ccc(-c2cn3ccc(N(C)C)cc3n2)cc1 [Example 16, [2-(4-Dimethylamino-phenyl)-imidazo[1,2-a]pyridin-7-yl]-dimethyl-amine]
Second: CN(C)c1ccn2cc(-c3ccc(OCCF)cc3)nc2c1 [Example 17, {2-[4-(2-Fluoro-ethoxy)-phenyl]-imidazo[1,2-a]pyridin-7-yl}-dimethyl-amine]
The “% displacement … at 10 nM” value of the first is lower: 29% for the first, 37% for the second.

First: CN(C)c1ccn2cc(-c3ccc(OCF)cc3)nc2c1 [Example 18, [2-(4-Fluoromethoxy-phenyl)-imidazo[1,2-a]pyridin-7-yl]-dimethyl-amine]
Second: CNc1ccn2cc(-c3ccc4c(c3)OCCO4)nc2c1 [Example 19, [2-(2,3-Dihydro-benzo[1,4]dioxin-6-yl)-imidazo[1,2-a]pyridin-7-yl]-methyl-amine]
The “% displacement … at 10 nM” value of the first is higher: 46% for the first, 37% for the second.

First: COc1ccc(-c2cn3ccc(N(C)C)cc3n2)cc1 [Example 20, [2-(4-Methoxy-phenyl)-imidazo[1,2-a]pyridin-7-yl]-dimethyl-amine]
Second: CN(C)c1ccn2cc(-c3ccc4c(c3)OCCO4)nc2c1 [Example 22, [2-(2,3-Dihydro-benzo[1,4]dioxin-6-yl)-imidazo[1,2-a]pyridin-7-yl]-dimethyl-amine]
The “% displacement … at 10 nM” value of the first is lower: 35% for the first, 39% for the second.

Going from `CN(CCF)c1ccn2cc(-c3ccc4c(c3)OCCO4)nc2c1` [Example 23, [2-(2,3-Dihydro-benzo[1,4]dioxin-6-yl)-imidazo[1,2-a]pyridin-7-yl]-(2-fluoro-ethyl)-methyl-amine] to `COc1ccc(-c2cn3ccc(N4CCC4)cc3n2)cc1` [Example 24, 7-Azetidin-1-yl-2-(4-methoxy-phenyl)-imidazo[1,2-a]pyridine], the “% displacement … at 10 nM” value rises from 27% to 54%.

First: CNc1ccn2cc(-c3cccc(C)c3)nc2c1 [Example 25, N-Methyl-2-m-tolylimidazo[1,2-a]pyridin-7-amine]
Second: Cc1cccc(-c2cn3ccc(N(C)C)cc3n2)c1 [Example 26, N,N-Dimethyl-(2-m-tolyl-imidazo[1,2-a]pyridin-7-yl)-amine]
The “% displacement … at 10 nM” value of the first is higher: 54% for the first, 53% for the second.

First: Cc1ccc(-c2cn3ccc(N(C)C)cc3n2)cc1 [Example 27, N,N-Dimethyl-(2-p-tolyl-imidazo[1,2-a]pyridin-7-yl)-amine]
Second: CNc1ccn2cc(-c3ccc(C)cc3)nc2c1 [Example 28, N-Methyl-(2-p-tolyl-imidazo[1,2-a]pyridin-7-yl)-amine]
The “% displacement … at 10 nM” value of the first is lower: 52% for the first, 57% for the second.

First: Cc1ccc(-c2cn3ccc(N(C)CCF)cc3n2)cc1 [Example 29, N-(2-Fluoroethyl)-N-methyl-(2-p-tolyl-imidazo[1,2-a]pyridin-7-yl)-amine]
Second: CN(C)c1ccc(-c2cn3ccc(N(C)CCF)cc3n2)cc1 [Example 30, 2-(4-(Dimethylamino)phenyl)-N-(2-fluoroethyl)-N-methylimidazo[1,2-a]pyridin-7-amine]
The “% displacement … at 10 nM” value of the first is higher: 38% for the first, 23% for the second.

Compared with `F[C@H]1CCN(c2ccn3cc(-c4ccccc4)nc3c2)C1` [Example 31, (S)-7-(3-Fluoropyrrolidin-1-yl)-2-phenyl-imidazo[1,2-a]pyridine], `COc1cccc(-c2cn3ccc(N(C)C)cc3n2)c1` [Example 32, [2-(3-Methoxy-phenyl)-imidazo[1,2-a]pyridin-7-yl]-dimethyl-amine] is higher in “% displacement … at 10 nM” value: 31% for the first, 36% for the second.

First: FCCC1CCN(c2ccn3cc(-c4ccc5c(c4)OCCO5)nc3c2)CC1 [Example 33, 2-(2,3-Dihydro-benzo[1,4]dioxin-6-yl)-7-[4-(2-fluoro-ethyl)-piperidin-1-yl]-imidazo[1,2-a]pyridine]
Second: Cc1cccc(-c2cn3ccc(N(C)CCF)cc3n2)c1 [Example 34, (2-Fluoro-ethyl)-methyl-(2-m-tolyl-imidazo[1,2-a]pyridin-7-yl)-amine]
The “% displacement … at 10 nM” value of the first is lower: 5% for the first, 41% for the second.

Going from `Cc1cccc(-c2cn3ccc(N4CCOCC4)cc3n2)c1` [Example 35, 7-Morpholin-4-yl-2-m-tolyl-imidazo[1,2-a]pyridine] to `Cc1ccc(-c2cn3ccc(N4CCOCC4)cc3n2)cc1` [Example 36, 7-Morpholin-4-yl-2-p-tolyl-imidazo[1,2-a]pyridine], the “% displacement … at 10 nM” value falls from 27% to 23%.

Compared with `CNc1ccn2cc(-c3ccc4c(c3)OCO4)nc2c1` [Example 37, (2-Benzo[1,3]dioxol-5-yl-imidazo[1,2-a]pyridin-7-yl)-methyl-amine], `CN(C)c1ccn2cc(-c3ccc4c(c3)OCO4)nc2c1` [Example 38, (2-Benzo[1,3]dioxol-5-yl-imidazo[1,2-a]pyridin-7-yl)-dimethyl-amine] is lower in “% displacement … at 10 nM” value: 60% for the first, 52% for the second.

For `CN(CCF)c1ccn2cc(-c3ccc4c(c3)OCO4)nc2c1` [Example 39, (2-Benzo[1,3]dioxol-5-yl-imidazo[1,2-a]pyridin-7-yl)-(2-fluoro-ethyl)-methyl-amine], the “% displacement … at 10 nM” value was 42%.

Same assay, conditions: compound 1 uM, radioligand [3H]T808 10 nM

`FCCNc1ccn2cc(-c3ccccc3)nc2c1` [Example 1, N-(2-Fluoroethyl)-2-phenylimidazo[1,2-a]pyridin-7-amine 2,2,2-trifluoroacetate] and `CNc1ccn2cc(-c3ccccc3)nc2c1` [Example 4, N-Methyl-2-phenylimidazo[1,2-a]pyridin-7-amine] are the same in “% displacement of [3H]T808 (10 nM) at 1 uM” value (“% displacement … at 1 uM” below): 93% for the first, 93% for the second.

First: CN(CCF)c1ccn2cc(-c3ccccc3)nc2c1 [Example 2, N-(2-Fluoroethyl)-N-methyl-2-phenylimidazo[1,2-a]pyridin-7-amine]
Second: CN(C)c1ccn2cc(-c3ccccc3)nc2c1 [Example 3, N,N-Dimethyl-2-phenylimidazo[1,2-a]pyridin-7-amine]
The “% displacement … at 1 uM” value of the first is lower: 90% for the first, 92% for the second.

With `FC1CCN(c2ccn3cc(-c4ccccc4)nc3c2)CC1` [Example 5, 7-(4-Fluoropiperidin-1-yl)-2-phenylimidazo[1,2-a]pyridine] the “% displacement … at 1 uM” value was 82%.
